Square brackets hold non-standard residues; d marks the D form. Peptide text beside a SMILES is read from it. Nle = CCCC[C@H](N)C(=O)O
Legend:
[1] = molecular target: T1, Avi-tagged WHSC1 941–1240 (Homo sapiens, UniProt O96028); test: SPR binding assay, Avi-tagged WHSC1 941–1240
T1 construct: purchased BPS Bioscience 111207
T1 sequence (O96028 941-1240 limits assumed): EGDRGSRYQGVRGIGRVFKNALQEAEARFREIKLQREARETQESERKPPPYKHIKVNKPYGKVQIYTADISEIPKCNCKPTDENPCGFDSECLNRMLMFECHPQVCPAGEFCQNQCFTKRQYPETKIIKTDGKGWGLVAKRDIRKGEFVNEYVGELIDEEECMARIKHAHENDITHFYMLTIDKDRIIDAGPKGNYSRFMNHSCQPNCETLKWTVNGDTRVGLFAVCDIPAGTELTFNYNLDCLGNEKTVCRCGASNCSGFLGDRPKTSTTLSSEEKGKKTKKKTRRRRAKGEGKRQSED
Protocol: The SPR binding assay for Avi-tagged WHSC1 941–1240 was performed at 15°C using the Biacore T200 system (GE Healthcare, Marlborough, MA). The running buffer contained 25 mM Tris-HCl pH 8.0, 150 mM NaCl, 5 mM DTT, 0.05% Tween-20, 10 μM ZnCl2, 50 μM SAM, and 2% DMSO. Biotinylated WHSC1 was immobilized on a streptavidin-coated SA chip up to 3700 RU (response units). The reference cell was blocked with PEG-biotin. Peptide inhibitor was injected at a flow rate of 50 μL/min with a 3-fold, 5-point dilution series ending at a 20 μM top concentration. Association and dissociation times were 240 and 2400 seconds, respectively. Double-referenced data were analyzed globally using a 1:1 binding model in BIAevaluation software.
WHSC1 was immobilized on a streptavidin-coated chip and peptide inhibitor was co-injected with SAM utilizing a 3-fold, 5-point dilution series ending at a 20 μM top concentration.
WHSC1 was immobilized on a streptavidin-coated chip and peptide inhibitor was either injected in the absence of cofactor (left panel), co-injected with SAH (middle panel), or co-injected with SFG (right panel) utilizing a 2-fold, 10-point dilution series ending at a 100 μM top concentration.

WHSC1L1 1054–1285 = molecular target: T2, WHSC1L1 1054–1285 (Homo sapiens, UniProt Q9BZ95); test: WHSC1L1 1054–1285 radiometric biochemical assay; conditions: 40 nM enzyme, 6 μM total SAM, 0.8 μM peptide, 30 min pre-incubation, three independent replicates
T2 construct: A WHSC1L1 construct containing amino acids 1054–1285; His-TEV (N, cleaved yes); made in house; host or cells: E. coli
T2 sequence (Q9BZ95 1054-1285): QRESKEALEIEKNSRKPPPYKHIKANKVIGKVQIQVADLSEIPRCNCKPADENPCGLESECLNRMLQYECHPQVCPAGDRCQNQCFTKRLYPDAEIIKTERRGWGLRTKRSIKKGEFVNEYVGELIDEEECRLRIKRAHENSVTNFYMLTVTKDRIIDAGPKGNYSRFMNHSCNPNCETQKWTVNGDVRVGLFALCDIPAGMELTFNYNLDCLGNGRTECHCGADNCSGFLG
Protocol: (§1) An optimized 1× assay buffer containing 20 mM Tris-HCl (pH 8.0), 1 mM DTT, 0.005% Tween-20, and 0.01% bovine skin gelatin was utilized. […] The reaction was quenched after 120 minutes by adding excess (1 mM final concentration) unlabeled SAM. Quenched reactions were transferred onto streptavidin coated Flashplates (PerkinElmer), incubated for 2 hours, washed 1x with 0.1% Tween 20, and read on a Topcount instrument (PerkinElmer).
(§2) The reaction was initiated by adding 10 μL substrate mix containing peptide and SAM. Concentration–response curves in units of percent inhibition were plotted as a function of inhibitor concentration and fitted in GraphPad Prism to determine the IC50 values using a four-parameter logistic equation.

WHSC1 941–1240 = molecular target: T3, WHSC1 941–1240 (Homo sapiens, UniProt O96028); test: WHSC1 941–1240 radiometric biochemical assay (3H methyl transfer from SAM to biotinylated H4 peptide); conditions: for IC50: radiometric, 10 nM enzyme, 1 μM total SAM, 0.5 μM H4 peptide, 30 min pre-incubation, 120 min, 25°C, pH 8.0, three independent replicates
T3 construct: GST-tagged WHSC1 941–1240 (#51026); GST; purchased BPS Bioscience 51026
T3 sequence (O96028 941-1240): T1 sequence (O96028 941-1240 limits assumed)
Protocol: as §1, §2

PRMT6 = PRMT6 (Homo sapiens, UniProt Q96LA8); test: HMT panel biochemical assay, PRMT6; conditions: HMT selectivity panel
EZH1 = EZH1 (Homo sapiens, UniProt Q92800); test: HMT panel biochemical assay, EZH1; conditions: HMT selectivity panel
EZH2 = EZH2 (Homo sapiens, UniProt Q15910); test: HMT panel biochemical assay, EZH2; conditions: HMT selectivity panel
SMYD2 = SMYD2 (Homo sapiens, UniProt Q9NRG4); test: HMT panel biochemical assay, SMYD2; conditions: HMT selectivity panel
SETDB1 = SETDB1 (Homo sapiens, UniProt Q15047); test: HMT panel biochemical assay, SETDB1; conditions: HMT selectivity panel
G9a = molecular target: T4, G9a (Homo sapiens, UniProt Q96KQ7); test: HMT panel biochemical assay, G9a; conditions: HMT selectivity panel
T4 sequence (Q96KQ7 1-1210): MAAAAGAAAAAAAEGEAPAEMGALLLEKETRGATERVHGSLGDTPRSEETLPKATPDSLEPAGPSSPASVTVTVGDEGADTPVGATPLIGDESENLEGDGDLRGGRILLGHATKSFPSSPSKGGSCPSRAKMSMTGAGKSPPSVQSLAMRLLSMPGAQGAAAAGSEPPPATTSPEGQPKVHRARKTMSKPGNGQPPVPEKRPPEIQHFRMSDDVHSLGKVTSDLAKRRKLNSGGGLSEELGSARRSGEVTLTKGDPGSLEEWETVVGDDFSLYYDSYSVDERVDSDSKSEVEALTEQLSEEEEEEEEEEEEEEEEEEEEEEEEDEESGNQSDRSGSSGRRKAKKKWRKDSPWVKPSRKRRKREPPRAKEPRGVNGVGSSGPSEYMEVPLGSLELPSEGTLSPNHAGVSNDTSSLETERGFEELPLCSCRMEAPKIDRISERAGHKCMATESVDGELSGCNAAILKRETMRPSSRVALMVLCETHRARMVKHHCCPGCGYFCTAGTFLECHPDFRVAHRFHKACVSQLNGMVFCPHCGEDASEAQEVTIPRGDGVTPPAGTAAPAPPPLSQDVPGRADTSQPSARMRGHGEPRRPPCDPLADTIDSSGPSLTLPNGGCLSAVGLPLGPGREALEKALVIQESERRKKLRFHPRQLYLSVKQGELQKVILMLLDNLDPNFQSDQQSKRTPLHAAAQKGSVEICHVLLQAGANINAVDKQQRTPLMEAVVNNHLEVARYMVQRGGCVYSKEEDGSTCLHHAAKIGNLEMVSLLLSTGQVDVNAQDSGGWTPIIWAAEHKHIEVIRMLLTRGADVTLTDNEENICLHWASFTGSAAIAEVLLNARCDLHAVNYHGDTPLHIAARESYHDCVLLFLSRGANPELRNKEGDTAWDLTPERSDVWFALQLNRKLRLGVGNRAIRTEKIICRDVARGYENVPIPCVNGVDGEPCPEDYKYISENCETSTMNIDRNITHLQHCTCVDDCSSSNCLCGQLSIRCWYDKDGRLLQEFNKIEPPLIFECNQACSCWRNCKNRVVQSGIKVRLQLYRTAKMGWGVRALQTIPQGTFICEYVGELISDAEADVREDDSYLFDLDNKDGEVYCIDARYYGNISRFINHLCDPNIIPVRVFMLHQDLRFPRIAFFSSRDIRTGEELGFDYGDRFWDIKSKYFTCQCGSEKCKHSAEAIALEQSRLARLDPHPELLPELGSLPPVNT

[2] = ratio of WHSC1 941–1240 biochemical IC50 values

Sequence of PRMT6 (Q96LA8 whole entry, species assumed): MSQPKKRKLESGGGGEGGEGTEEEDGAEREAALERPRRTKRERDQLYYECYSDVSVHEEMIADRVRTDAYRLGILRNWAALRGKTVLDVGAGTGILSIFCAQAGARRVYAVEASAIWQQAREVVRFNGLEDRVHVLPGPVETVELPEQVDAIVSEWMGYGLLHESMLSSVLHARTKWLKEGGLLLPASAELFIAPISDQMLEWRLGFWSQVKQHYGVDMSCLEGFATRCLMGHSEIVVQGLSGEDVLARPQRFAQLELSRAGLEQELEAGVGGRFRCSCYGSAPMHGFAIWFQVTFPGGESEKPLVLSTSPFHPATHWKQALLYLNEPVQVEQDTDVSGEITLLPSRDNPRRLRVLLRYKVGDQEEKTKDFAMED
Sequence of EZH2 (Q15910 whole entry, species assumed): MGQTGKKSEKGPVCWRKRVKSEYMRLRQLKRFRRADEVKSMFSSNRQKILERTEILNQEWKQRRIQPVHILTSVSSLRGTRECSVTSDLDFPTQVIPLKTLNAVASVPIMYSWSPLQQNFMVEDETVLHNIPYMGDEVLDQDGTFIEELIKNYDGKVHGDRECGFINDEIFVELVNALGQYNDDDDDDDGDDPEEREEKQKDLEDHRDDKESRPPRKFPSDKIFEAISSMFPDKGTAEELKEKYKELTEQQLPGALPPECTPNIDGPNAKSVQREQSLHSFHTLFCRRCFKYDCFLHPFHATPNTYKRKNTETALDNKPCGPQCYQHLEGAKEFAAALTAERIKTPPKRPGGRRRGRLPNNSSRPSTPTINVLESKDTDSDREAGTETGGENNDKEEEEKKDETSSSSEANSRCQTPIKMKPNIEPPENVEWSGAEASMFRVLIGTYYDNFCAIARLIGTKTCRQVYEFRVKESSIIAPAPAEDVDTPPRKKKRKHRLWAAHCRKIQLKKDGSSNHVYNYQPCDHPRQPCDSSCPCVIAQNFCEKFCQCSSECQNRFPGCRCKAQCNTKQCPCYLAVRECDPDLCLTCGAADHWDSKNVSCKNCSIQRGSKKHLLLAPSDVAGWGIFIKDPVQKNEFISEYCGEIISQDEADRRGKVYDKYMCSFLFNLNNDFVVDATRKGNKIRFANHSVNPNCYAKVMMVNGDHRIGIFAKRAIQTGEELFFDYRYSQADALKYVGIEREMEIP
Sequence of EZH2 (O75530 whole entry partner, species assumed): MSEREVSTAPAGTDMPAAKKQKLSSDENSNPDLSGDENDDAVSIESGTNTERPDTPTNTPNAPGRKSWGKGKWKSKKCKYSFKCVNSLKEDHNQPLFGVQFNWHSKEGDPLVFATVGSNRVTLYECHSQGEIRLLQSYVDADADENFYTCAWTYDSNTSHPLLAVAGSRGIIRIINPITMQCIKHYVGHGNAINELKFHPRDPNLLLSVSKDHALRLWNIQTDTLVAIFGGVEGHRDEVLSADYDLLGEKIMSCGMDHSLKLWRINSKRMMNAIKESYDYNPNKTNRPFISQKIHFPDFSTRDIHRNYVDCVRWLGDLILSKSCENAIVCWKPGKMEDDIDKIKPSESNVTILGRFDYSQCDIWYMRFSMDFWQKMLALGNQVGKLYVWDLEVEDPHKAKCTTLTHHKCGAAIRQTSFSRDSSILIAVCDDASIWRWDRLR
Sequence of EZH2 (Q15022 whole entry partner, species assumed): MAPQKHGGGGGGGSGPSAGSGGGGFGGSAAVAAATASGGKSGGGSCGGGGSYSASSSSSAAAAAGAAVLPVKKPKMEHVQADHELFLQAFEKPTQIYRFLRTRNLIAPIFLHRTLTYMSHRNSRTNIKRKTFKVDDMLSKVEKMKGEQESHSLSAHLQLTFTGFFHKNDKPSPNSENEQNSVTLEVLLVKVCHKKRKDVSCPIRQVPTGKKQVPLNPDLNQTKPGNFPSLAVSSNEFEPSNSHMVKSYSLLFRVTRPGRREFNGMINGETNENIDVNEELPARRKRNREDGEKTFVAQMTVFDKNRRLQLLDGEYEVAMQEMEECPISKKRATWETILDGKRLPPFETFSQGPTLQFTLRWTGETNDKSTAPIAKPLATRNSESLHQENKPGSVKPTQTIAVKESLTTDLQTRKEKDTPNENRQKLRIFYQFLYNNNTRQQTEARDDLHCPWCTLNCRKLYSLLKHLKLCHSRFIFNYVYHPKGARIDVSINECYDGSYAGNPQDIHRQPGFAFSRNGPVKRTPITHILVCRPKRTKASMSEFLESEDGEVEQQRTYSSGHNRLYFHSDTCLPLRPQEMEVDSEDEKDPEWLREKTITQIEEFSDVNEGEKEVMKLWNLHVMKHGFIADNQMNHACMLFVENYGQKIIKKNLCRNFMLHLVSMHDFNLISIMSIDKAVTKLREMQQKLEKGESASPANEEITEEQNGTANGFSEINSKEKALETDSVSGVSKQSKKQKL
Sequence of EZH1 (Q92800 whole entry, species assumed): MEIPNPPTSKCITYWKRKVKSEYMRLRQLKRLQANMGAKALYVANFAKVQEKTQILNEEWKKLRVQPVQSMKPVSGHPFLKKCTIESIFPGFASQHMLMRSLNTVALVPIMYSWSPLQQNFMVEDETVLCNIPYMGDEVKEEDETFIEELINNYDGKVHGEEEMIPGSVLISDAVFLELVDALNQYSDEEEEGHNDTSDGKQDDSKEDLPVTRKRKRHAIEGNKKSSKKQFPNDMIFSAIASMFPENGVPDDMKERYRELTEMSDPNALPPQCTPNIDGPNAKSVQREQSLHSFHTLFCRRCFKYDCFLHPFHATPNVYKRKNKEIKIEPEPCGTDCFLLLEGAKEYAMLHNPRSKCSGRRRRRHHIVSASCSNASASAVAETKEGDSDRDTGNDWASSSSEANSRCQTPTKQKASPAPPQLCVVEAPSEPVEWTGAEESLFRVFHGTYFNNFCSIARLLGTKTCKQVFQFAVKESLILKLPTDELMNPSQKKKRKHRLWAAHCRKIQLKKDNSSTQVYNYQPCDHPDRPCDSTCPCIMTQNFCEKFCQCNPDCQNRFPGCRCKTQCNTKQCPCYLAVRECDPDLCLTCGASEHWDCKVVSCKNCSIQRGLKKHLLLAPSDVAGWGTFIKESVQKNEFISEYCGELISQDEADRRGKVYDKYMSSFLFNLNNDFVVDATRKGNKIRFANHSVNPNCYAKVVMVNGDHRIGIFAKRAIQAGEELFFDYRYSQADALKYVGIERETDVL
Sequence of EZH1 (O75530 whole entry partner, species assumed): as the sequence (O75530 whole entry partner, species assumed) above
Sequence of EZH1 (Q15022 whole entry partner, species assumed): as the sequence (Q15022 whole entry partner, species assumed) above
Sequence of SMYD2 (Q9NRG4 whole entry, species assumed): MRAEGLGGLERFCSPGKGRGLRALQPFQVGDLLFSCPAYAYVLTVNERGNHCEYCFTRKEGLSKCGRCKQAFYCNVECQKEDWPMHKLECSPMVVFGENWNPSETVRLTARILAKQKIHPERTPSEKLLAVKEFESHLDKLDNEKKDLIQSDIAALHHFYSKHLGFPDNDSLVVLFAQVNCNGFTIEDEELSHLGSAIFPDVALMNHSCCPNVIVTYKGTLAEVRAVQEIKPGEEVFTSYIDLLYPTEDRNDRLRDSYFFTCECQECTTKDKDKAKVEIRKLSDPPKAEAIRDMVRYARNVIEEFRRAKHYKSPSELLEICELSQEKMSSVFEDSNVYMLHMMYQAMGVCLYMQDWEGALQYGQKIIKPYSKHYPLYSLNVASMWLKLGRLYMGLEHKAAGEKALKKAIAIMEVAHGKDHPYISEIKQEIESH

Compound | IC50 (WHSC1L1 1054–1285) [µM] | IC50 (WHSC1 941–1240) [µM] | also measured
CCCC[C@H](NC(=O)[C@@H](NC(=O)CNC(=O)CNC(=O)[C@H](CCCNC(=N)N)NC(=O)[C@H](CCCNC(=N)N)NC(=O)[C@H](C)NC(=O)[C@H](CC(C)C)NC(=O)[C@H](CCCNC(=N)N)NC(C)=O)C(C)C)C(=O)N[C@@H](CCCNC(=N)N)C(=O)N[C@H](C(=O)N[C@@H](CO)C(=O)NCC(=O)N[C@@H](CC(C)C)C(=O)N[C@H](C(N)=O)[C@@H](C)CC)[C@@H](C)CC [PTD1] (Ac-RLARRGGV[Nle]RISGLI-NH2) | 1.1 ± 0.1 | 0.088 ± 0.005 | SPR behaviour on the sensor surface ([1]; at concentrations greater than 1 μM, affinity to WHSC1 could not be determined): non-specific matrix interactions; fold more potent towards WHSC1 than the 5 residue Nle peptide (PTD2) (WHSC1 941–1240; [2]): 250 fold
CCCC[C@H](NC(=O)[C@@H](NC(=O)CNC(C)=O)C(C)C)C(=O)N[C@@H](CCCNC(=N)N)C(=O)N[C@H](C(N)=O)[C@@H](C)CC [PTD2] | – | – | IC50 (PRMT6): > 200 µM; IC50 (EZH1): > 200 µM; SPR binding in the absence of cofactor ([1]; no cofactor, 2-fold, 10-point dilution, top concentration 100 μM): no binding is observed; IC50 (EZH2): > 200 µM; IC50 (SMYD2): > 200 µM; IC50 (SETDB1): > 200 µM; IC50 (G9a): > 200 µM
CCCC[C@H](NC(=O)[C@@H](NC(=O)CNC(=O)CNC(C)=O)C(C)C)C(=O)N[C@@H](CCCNC(=N)N)C(N)=O [PTD4] (Ac-GGV[Nle]R-NH2) | 320 ± 30 | 180 ± 20 | –
CCCC[C@H](NC(=O)[C@@H](NC(=O)CNC(=O)CNC(=O)[C@H](CCCNC(=N)N)NC(C)=O)C(C)C)C(N)=O [PTD5] (Ac-RGGV[Nle]-NH2) | 110 ± 10 | 190 ± 20 | –
CCCC[C@H](NC(=O)[C@@H](NC(C)=O)C(C)C)C(=O)N[C@@H](CCCNC(=N)N)C(=O)N[C@H](C(=O)N[C@@H](CO)C(N)=O)[C@@H](C)CC [PTD6] (Ac-V[Nle]RIS-NH2) | 3 ± 0.3 | 110 ± 20 | –
CCCC[C@H](NC(C)=O)C(=O)N[C@@H](CCCNC(=N)N)C(=O)N[C@H](C(=O)N[C@@H](CO)C(=O)NCC(N)=O)[C@@H](C)CC [PTD7] (Ac-[Nle]RISG-NH2) | > 1000 | 200 ± 40 | –
CCCC[C@H](NC(=O)[C@@H](NC(=O)CNC(=O)CNC(=O)[C@@H](NC(=O)[C@H](C)NC(=O)[C@@H]1CCCN1C(=O)[C@H](C)NC(=O)[C@H](CO)NC(C)=O)[C@@H](C)O)C(C)C)C(=O)N[C@@H](CCCCN)C(=O)N1CCC[C@H]1C(=O)N[C@@H](Cc1c[nH]cn1)C(=O)N[C@@H](CCCNC(=N)N)C(=O)N[C@@H](Cc1ccc(O)cc1)C(=O)N[C@@H](CCCNC(=N)N)C(N)=O [PTD8] | 190 ± 30 | 13 ± 1 | fold loss in WHSC1 potency compared with PTD1 (WHSC1 941–1240; [2]): 150 fold
CCCC[C@H](NC(=O)[C@@H](NC(=O)CNC(C)=O)C(C)C)C(=O)N[C@@H](CCCCN)C(=O)N1CCC[C@H]1C(N)=O [PTD9] (Ac-GV[Nle]KP-NH2) | 370 ± 40 | 130 ± 20 | fold decrease in WHSC1 potency relative to PTD2 (WHSC1 941–1240; [2]): 6 fold
Ac-GVARI-NH2 [PTD3] | > 1000 | 640 ± 70 | fold decrease in WHSC1 potency relative to PTD2 (WHSC1 941–1240; [2]): 30 fold
